Consider nine molecules from patent publication US11091786B2, “Butelase-mediated peptide ligation” (Nanyang Technological University, priority 2015, dated 2021).

For data set [1], the system named is butelase 1. Kind of data set: Butelase-mediated ligation kinetic characterization (Lineweaver-Burk). To be noted: 0.1 μM butelase 1, 1 mM GIGGIR, peptide 25 to 400 μM, pH 6.5, 42° C. It is filed as biochemical, Clitoria ternatea. The procedure:
Ligation assays were performed in 50-μl mixtures containing reaction buffer (1 mM EDTA, 20 mM phosphate buffer, pH 6.5), 0.1 […] butelase 1, 1 mM GIGGIR (SEQ ID NO:114) and varying concentrations of peptides 1-4 (25 to 400 μM). The reactions were performed in triplicate at 42° C. and quenched by adding 5 μl of 1 M HCl solution. The peptides were separated by using a reversed-phase C18 analytical column (150×2.1 mm, Vydac) with a linear gradient from 5% to 40% acetonitrile over 15 min on a Nexera UHPLC system (Shimadzu). The ligation velocities were calculated by converting the HPLC-peak areas of remained linear precursors or the ligated products into concentrations. The identity of each HPLC peak was analyzed by MALDI-TOF MS (ABI 4800 MALDI TOF/TOF). The kinetic parameters (kcat and Km) for each peptide were obtained by the LineweaverBurk plot.

Data set [2] has as its system E. coli. Type of data set: cell-based. On the procedure:
(§1) The materials for radial diffusion assay were prepared as following:
(§2) Trypticase soy broth (TSB): Full-strength broth contains 30 grams of TSB powder per liter of deionized water. It was autoclaved at 120° C. for 20 min and stored at room temperature.
(§3) Underlay gel: 50 mL of […] sodium phosphate buffer, 5 ml full-strength TSB and 5 g agarose were mixed in a beaker followed by addition of deionized water to 500 mL. The medium was autoclaved at 120° C. for 20 min. Before use, it was maintained at 42° C. to prevent from solidifying.
(§4) Overlay gel: One liter of overlay gel contains 60 g of TSB powder and 10 g of agarose. The medium was autoclaved at 120° C. for 20 min. To prevent from solidifying, it was maintained at 42° C. before use.
(§5) The following protocol was applied to the radial diffusion assay.
(§6) 1. A single colony was picked and transferred into a 5 ml tube containing 2.5 ml TSB. The culture was shaken at 37° C. for 18 h.
(§7) 2. 50 μl of the stationary phase culture was diluted to 2.5 mL of autoclaved TSB (1:50 dilution) and shaken at 37° C. for another 3 h.
(§8) 3. This subculture was centrifuged at 5000 rpm for 5 min and the supernatant was discarded. The residual cells were washed with cold sterile 10 mM phosphate buffer, pH 7.4 and the buffer was discarded after centrifuge. 5 ml of the same buffer was added to resuspend the cells and its bacteria concentration was determined by measuring its optical density at 620 nm.
(§9) 4. 10 ml of antoclaved, molten underlay gel agar was transferred to a 15-ml eppendorf tube and mixed with 4×10^6 CFU of bacteria by vortexing. The mixture was then poured into a petri dish and gelled in less than […]. Wells were punched against the gel using a Pasteur pippette.
(§10) 5. Peptides to be tested were serially diluted and 3.5 μl of each sample was added to the well. The plates were incubated at 37° C. for 3 h with gel-side up.
(§11) 6. Next, each underlay gel was covered with 10 ml of overlay gel. After the gel solidified, the plates were turned gel-side up and incubated at 37° C. for overnight.
(§12) 7. The following morning, all the plates were taken out and the zone diameters were measured with ruler. All the samples were tested in duplicates and the results were averaged. The final minimum inhibition concentration (MIC) was determined using excel.
(§13) There is a growing interest to develop peptide-based antibiotics (Annu Rev Immunol. 1995, 13, 61-92; J Intern Med. 2003, 254, 197-215; Cent Eur J Biol 2007, 2, 1-33; Int J Pept Res Ther. 2010, 16, 199-213) because, compared with conventional antibiotics, they are less likely to develop drug resistance and have fewer side effects (J Med Chem. 2015, 58, 6533-6548; Biochemistry-Us. 2000, 39, 7159-7169; Eur J Biochem. 2000, 267, 3289-3300; Nucleic Acids Res. 2012, 40, W199-204). To apply the presently disclosed enzymatic method in preparing dendrimeric antimicrobials, inventors synthesized two antimicrobials 12 (bivalent) and 13 (tetravalent) (MS shown in supporting information) which harbored a tetrapeptide RLYR (SEQ ID NO:121) as the antibacterial sequence (Eur J Biochem. 2002, 269, 923-932) by ligating N-acetylated thiodepsipeptide 10 Ac-RLYRN-thioglc-V (SEQ ID NO:120) with dendron core 2 and 6 respectively. The RLYR (SEQ ID NO:121) tetrapeptide contains a BHHB motif (B=basic, H=hydrophobic) which is commonly found in certain potent and broad-spectrum β-stranded antimicrobial peptides (BioDrugs. 2013, 27, 479-493) such as PG (protegrins) (Febs Lett. 1993, 327, 231-236) and RTD-1 (rhesus monkey theta defensin) (Science. 1999, 286, 498-502). This consensus motif with positive charged and hydrophobic residues was successfully used as a dendrimeric antimicrobial in 2002 (Eur J Biochem. 2002, 269, 923-932). Such short peptide-based dendrimeric antimicrobials are broad-spectrum antibiotics and kill bacterial cells through electrostatic and hydrophobic interactions with the negatively charged microbial cytoplasmic membranes (Biochemistry-Us. 2009, 48, 5642-5657). […]

Data set [3] concerns S. aureus. Type of data set: cell-based. The procedure: as §1, §2, §3, §4, §5, §6, §7, §8, §9, §10, §11, §12, §13
Data set [4] can be described thus: Degradation time course of peptide in reaction buffer without butelase 1 (HPLC). Type of data set: physicochemical. To be noted: absence of butelase 1, peptide 100 μM, 42° C. On the procedure:
(§14) FIG. 9. Degradation time course for thiodepsipeptide 1 and depsipeptide 2. Each peptide (100 μM) was incubated in the absence or presence of butelase 1 (50 nM) at 42° C. The peptide stability was monitored by HPLC every […].
(§15) To apply butelase 1 for N-terminal labeling of proteins, inventors used ubiquitin and green fluorescent protein (GFP) as examples (FIG. 4). Since butelase 1 prefers a hydrophobic amino acid (Ile/Leu/Val) or Cys at the P2″ position of an acceptor nucleophile, inventors prepared a recombinant ubiquitin protein (SEQ ID NO:122) with Gly-Ile at the N-terminus and His-tag at the C-terminus. It was also examined whether this method would work if His-tag was located at the N-terminus. Inventors thus prepared a recombinant GFP (SEQ ID NO:123) with an additional Ile inserted between the start codon and the N-terminal His-tag. Both proteins were labeled with the model thiodepsipeptide 1 in the presence of 0.001 molar equivalent of butelase 1. The labeling of proteins was slower as compared to the labeling of peptide 5, probably due to large differences in size between the model peptide and proteins. Furthermore, the N-terminal amino group of proteins may have a lower accessibility to butelase 1 as compared to peptides. […]

For data set [5], the system named is butelase 1. The data set can be described thus: Degradation time course of peptide in the presence of butelase 1 (HPLC). It is filed as biochemical. The following applies: Clitoria ternatea, butelase 1 in reaction buffer, presence of 0.0005 molar equivalent of butelase 1 (50 nM), peptide 100 μM, 42° C. On the procedure:
as §14, §15

For data set [6], the system named is butelase 1. The following applies: highest reported value; cited from earlier work.

Converted amounts (≈) assume the structure as drawn. Numbered stars: 1 amine (or outer) side, 2 acyl side, 3 side chain; on linkers, the order of the positions; unused ones are H or OH. Bridge positions count the residues as written; N and C are the ends. Square brackets hold non-standard residues; d marks the D form. Side chains are listed from the residue outwards. Ends that are not written are not given here. Peptide text beside a SMILES is read from it. I, II: the chains in the order shown. X1 = O=C(CO[*:1])[*:2]; βAla = NCCC(=O)O

For “YKNHV (not fully specified (C-terminus)) [Peptide 3]”, in data set [1], the Km turned out to be 300 ± 10 µM and the kcat turned out to be 4.1 ± 0.65 s⁻¹.
On to `CC[C@H](C)[C@H](NC(=O)[C@@H](N)CCCNC(=N)N)C(=O)NCCC(=O)NCCCC[C@H](NC(=O)CCNC(=O)[C@@H](NC(=O)[C@@H](N)CCCNC(=N)N)[C@@H](C)CC)C(=O)N[C@@H](Cc1ccc(O)cc1)C(N)=O` [Bivalent dendron core 2, (RIβA)2KY] (H-RI[βAla]K([βAla-Ile-Arg])Y-NH2; N-terminus assumed), for which the MIC in data set [2] and in data set [3] was over 150 µM throughout.
Turning to `CC(C)[C@H](NC(=O)COC(=O)[C@H](CC(N)=O)NC(=O)[C@H](CCCCN)NC(=O)[C@@H](N)Cc1ccc(O)cc1)C(N)=O` [Peptide 2, YKN(O)GV] (H-YKN[X1]V-NH2; N-terminus assumed), the half-life at 100 μM in data set [4] was found to be 45 min. In data set [1], the Km amounted to 740 ± 10 µM and the kcat is 12.4 ± 0.32 s⁻¹. Further, the half-life at 100 μM in data set [5] is 37 min.
Consider `CC(C)C[C@H](NC(=O)[C@@H](N)CCCNC(=N)N)C(=O)N[C@@H](Cc1ccc(O)cc1)C(=O)N[C@@H](CCCNC(=N)N)C(N)=O` [Monomer 11, RLYR, reference compound] (H-RLYR-NH2; N-terminus assumed), for which the MIC in data set [2] and in data set [3] was over 300 µM throughout. Further, the “antimicrobial activity (in words)” value is listed as “no appreciable activity” in data set [2] (E. coli, high-salt condition (100 mM NaCl)) and “no appreciable activity” in data set [3] (S. aureus, high-salt condition (100 mM NaCl)).
Take `CC[C@H](C)[C@H](NC(=O)[C@H](CCCNC(=N)N)NC(=O)[C@H](CC(N)=O)NC(=O)[C@H](CCCNC(=N)N)NC(=O)[C@H](Cc1ccc(O)cc1)NC(=O)[C@H](CC(C)C)NC(=O)[C@H](CCCNC(=N)N)NC(C)=O)C(=O)NCCC(=O)NCCCC[C@H](NC(=O)CCNC(=O)[C@@H](NC(=O)[C@H](CCCNC(=N)N)NC(=O)[C@H](CC(N)=O)NC(=O)[C@H](CCCNC(=N)N)NC(=O)[C@H](Cc1ccc(O)cc1)NC(=O)[C@H](CC(C)C)NC(=O)[C@H](CCCNC(=N)N)NC(C)=O)[C@@H](C)CC)C(=O)N[C@@H](Cc1ccc(O)cc1)C(N)=O` [Dimer 12, (Ac-RLYRNRIβA)2KY] (I: Ac-RLYRNRI[βAla]KY-NH2 / II: Ac-RLYRNRI[βAla]; amide I:9-II:C): the MIC in data set [2] came out at 18.3 µM (≈ 45.4 µg/mL); in data set [3] it was 3.4 µM (≈ 8.43 µg/mL).
Turning to `CC[C@H](C)[C@H](NC(=O)[C@@H](N)CCCNC(=N)N)C(=O)NCCC(=O)NCCCC[C@H](NC(=O)CCNC(=O)[C@@H](NC(=O)[C@@H](N)CCCNC(=N)N)[C@@H](C)CC)C(=O)NCCCC[C@H](NC(=O)[C@H](CCCCNC(=O)CCNC(=O)[C@@H](NC(=O)[C@@H](N)CCCNC(=N)N)[C@@H](C)CC)NC(=O)CCNC(=O)[C@@H](NC(=O)[C@@H](N)CCCNC(=N)N)[C@@H](C)CC)C(=O)N[C@@H](Cc1ccc(O)cc1)C(N)=O` [Tetravalent dendron core 6, (RIβA)4K2KY], the MIC in data set [2] and in data set [3] was over 150 µM each time.
With “YKNGV (not fully specified (C-terminus)) [Peptide 4]”, in data set [1], the Km stood at 880 ± 80 µM and the catalytic constant (kcat) came to 7.9 ± 0.72 s⁻¹.
The molecule `CC(C)[C@H](NC(=O)CSC(=O)[C@H](CC(N)=O)NC(=O)[C@H](CCCCN)NC(=O)[C@@H](N)Cc1ccc(O)cc1)C(N)=O` [Peptide 1, YKN(S)GV] gave a half-life at 100 μM in data set [4] of about 75 min. Moreover, in data set [1], the Km came to 2760 ± 300 µM and the kcat worked out at 56.5 ± 7.5 s⁻¹. In addition, the half-life at 100 μM in data set [5] is 40 min.

B1: Butelase 1: Asn/Asp(Asx)-specific ligase isolated from the medicinal plant Clitoria ternatea (SEQ ID NO:1) (protein, listed as Clitoria ternatea)
chain: VEGTRWAVLVAGSKGYVNYRHQADVCHAYQILKKGGLKDENIIVFMYDDIAYNESNPHPGVIINHPYGSDVYKGVPKDYVGEDINPPNFYAVLLANKSALTGTGSGKVLDSGPNDHVFIYYTDHGGAGVLGMPSKPYIAASDLNDVLKKKHASGTYKSIVFYVESCESGSMFDGLLPEDHNIYVMGASDTGESSWVTYCPLQHPSPPPEYDVCVGDLFSVAWLEDCDVHNLQTETFQQQYEVVKNKTIVALIEDGTHVVQYGDVGLSKQTLFVYMGTDPANDNNTFTDKNSLGTPRKAVSQRDADLIHYWEKYRRAPEGSSRKAEAKKQLREVMAHRMHIDN
With B1, the catalytic efficiency entry in data set [6] is given as “up to 542,000 M^−1 s^−1”.
